The source of these data is US8338465B2, “Cyclic carboxylic acid rhodanine derivatives for the treatment and prevention of tuberculosis” (priority 2006, dated 2012).

Each structure is given as a SMILES string. Where only a bound is given, the exact number is not on record here.

The experiment concerns the target T1, dihydrolipoamide acyltransferase (DlaT) (Mycobacterium tuberculosis, UniProt P9WIS7).
T1 sequence (P9WIS7 1-553): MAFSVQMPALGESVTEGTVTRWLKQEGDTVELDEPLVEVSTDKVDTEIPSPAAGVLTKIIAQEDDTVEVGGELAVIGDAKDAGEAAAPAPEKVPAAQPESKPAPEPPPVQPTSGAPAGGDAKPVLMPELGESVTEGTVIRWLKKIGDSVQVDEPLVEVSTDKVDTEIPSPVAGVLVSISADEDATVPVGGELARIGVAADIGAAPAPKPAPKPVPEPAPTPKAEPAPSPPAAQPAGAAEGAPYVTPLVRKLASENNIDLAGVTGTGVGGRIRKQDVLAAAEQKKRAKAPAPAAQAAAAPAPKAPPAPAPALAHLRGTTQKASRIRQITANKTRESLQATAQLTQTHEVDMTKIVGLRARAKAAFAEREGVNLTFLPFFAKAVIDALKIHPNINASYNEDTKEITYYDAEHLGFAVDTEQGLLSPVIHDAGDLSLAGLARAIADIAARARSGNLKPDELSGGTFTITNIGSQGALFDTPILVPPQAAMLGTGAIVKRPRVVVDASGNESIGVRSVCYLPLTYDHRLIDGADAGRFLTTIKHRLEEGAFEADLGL
The experiment is described as follows: DlaT inhibition (Dlat IC50); DTNB peroxidase assay with Lpd, DlaT and AhpD. In kind it is biochemical. The following applies: Dlat IC50 category.
The compound `CNS(=O)(=O)c1ccc(-c2ccc(C=C3SC(=S)N(C4CCC(C(=O)O)CC4)C3=O)o2)cc1` (stereo not drawn) [Compound C84, 4-{5-[5-(4-Methylsulfamoyl-phenyl)-furan-2-ylmethylene]-4-oxo-2-thioxo-thiazolidin-3-yl}-cyclohexanecarboxylic acid] returned a half-inhibitory concentration (IC50) of less than 10 µM.

Compound `CN(C)S(=O)(=O)c1ccc(-c2ccc(C=C3SC(=S)N(C4CCCC(C(=O)O)C4)C3=O)o2)cc1` (stereo not drawn) [Compound C85, 3-{5-[5-(4-Dimethylsulfamoyl-phenyl)-furan-2-ylmethylene]-4-oxo-2-thioxo-thiazolidin-3-yl}-cyclohexanecarboxylic acid] came in with an IC50 of 41 to 80 µM.

`CN(C)S(=O)(=O)c1ccc(-c2ccc(C=C3SC(=S)N(C4CCC(C(=O)O)CC4)C3=O)o2)cc1` (stereo not drawn) [Compound C86, 4-{5-[5-(4-Dimethylsulfamoyl-phenyl)-furan-2-ylmethylene]-4-oxo-2-thioxo-thiazolidin-3-yl}-cyclohexanecarboxylic acid]: the IC50 is 11 to 40 µM.

As for `O=C(O)c1ccccc1NN1C(=O)C(=Cc2ccc(-c3ccccc3Cl)o2)SC1=S` [Compound D1, 2-{5-[1-[5-(2-chloro-phenyl)-furan-2-yl]-methylidene]-4-oxo-2-thioxo-thiazolidin-3-ylamino}-benzoic acid], the IC50 is less than 10 µM.

Regarding `O=C(O)c1ccccc1NN1C(=O)C(=Cc2ccc(-c3cccc(C(F)(F)F)c3)o2)SC1=S` [Compound D3, 2-{4-oxo-2-thioxo-5-[1-[5-(3-trifluoromethyl-phenyl)-furan-2-yl]-methylidene]-thiazolidin-3-ylamino}-benzoic acid], the 50% inhibitory concentration (IC50) is less than 10 µM.

`O=C(O)c1ccccc1NN1C(=O)C(=Cc2ccc(-c3cccc([N+](=O)[O-])c3)o2)SC1=S` [Compound D4, 2-{5-[1-[5-(3-nitro-phenyl)-furan-2-yl]-methylidene]-4-oxo-2-thioxo-thiazolidin-3-ylamino}-benzoic acid] registered an IC50 of less than 10 µM.

The compound `CC(C)(C)c1ccc(O)c(-c2ccc(C=C3SC(=S)N(Nc4ccccc4C(=O)O)C3=O)o2)c1` [Compound D5, 2-{5-[1-[5-(5-tert-butyl-2-hydroxy-phenyl)-furan-2-yl]-methylidene]-4-oxo-2-thioxo-thiazolidin-3-ylamino}-benzoic acid] yielded an IC50 of less than 10 µM.

With `O=C(O)c1ccccc1NN1C(=O)C(=Cc2ccc(-c3ccc(F)cc3F)o2)SC1=S` [Compound D7, 2-{5-[1-[5-(2,4-difluoro-phenyl)-furan-2-yl]-methylidene]-4-oxo-2-thioxo-thiazolidin-3-ylamino}-benzoic acid], the IC50 is less than 10 µM.

In turn, `Cc1ccc(-c2ccc(C=C3SC(=S)N(Nc4ccccc4C(=O)O)C3=O)o2)c(C)c1` [Compound D8, 2-{5-[1-[5-(2,4-dimethyl-phenyl)-furan-2-yl]-methylidene]-4-oxo-2-thioxo-thiazolidin-3-ylamino}-benzoic acid] displayed an IC50 of less than 10 µM.

`COc1ccc(-c2ccc(C=C3SC(=S)N(Nc4ccccc4C(=O)O)C3=O)o2)c(C)c1` [Compound D9, 2-{5-[1-[5-(4-methoxy-2-methyl-phenyl)-furan-2-yl]-methylidene]-4-oxo-2-thioxo-thiazolidin-3-ylamino}-benzoic acid] yielded an IC50 of less than 10 µM.

Compound `Cc1cc(F)ccc1-c1ccc(C=C2SC(=S)N(Nc3ccccc3C(=O)O)C2=O)o1` [Compound D10, 2-{5-[1-[5-(4-fluoro-2-methyl-phenyl)-furan-2-yl]-methylidene]-4-oxo-2-thioxo-thiazolidin-3-ylamino}-benzoic acid] returned an IC50 of less than 10 µM.

The compound `Cc1ccc(-c2ccc(C=C3SC(=S)N(Nc4ccccc4C(=O)O)C3=O)o2)c(F)c1` [Compound D11, 2-{5-[1-[5-(2-fluoro-4-methyl-phenyl)-furan-2-yl]-methylidene]-4-oxo-2-thioxo-thiazolidin-3-ylamino}-benzoic acid] had a half-maximal inhibitory concentration (IC50) of less than 10 µM.
